From patent US10947188B2, “Small molecule ferroptosis inducers” (THE TRUSTEES OF COLUMBIA UNIVERSITY IN THE CITY OF NEW YORK, priority 2016, dated 2021)

System: HT-1080
Experiment: Modulatory profiling: Alamar Blue viability, lethal compound cotreated with death modulator (EC50, AUC)
Type: cell-based
Parameters: AUC, modulator HT.3MA / AUC, modulator HT.ALLN / AUC HT.ATA / AUC HT.ActD / AUC HT.BHA / AUC HT.BHT / AUC HT.BocD / AUC HT.CHX / AUC HT.Co2+ / AUC HT.DPQ / AUC HT.EGTA / AUC HT.Lmim / AUC HT.NAD+ / AUC HT.Nec-1 / AUC HT.SP600125 / AUC HT.TLCK / AUC HT.U0126: unit not given beside the values
Conditions: for AUC HT.ATA: HT-1080, modulator ATA; for AUC HT.ActD: HT-1080, modulator ActD; for AUC HT.BHA: HT-1080, modulator BHA; for AUC HT.BHT: HT-1080, modulator BHT; for AUC HT.BocD: HT-1080, modulator BocD; for AUC HT.CHX: HT-1080, modulator CHX; for AUC HT.Co2+: HT-1080, modulator Co2+; for AUC HT.CspA: HT-1080, modulator CspA; for AUC HT.DPQ: HT-1080, modulator DPQ; for AUC HT.EGTA: HT-1080, modulator EGTA; for AUC HT.Gd3+: HT-1080, modulator Gd3+; for AUC HT.LNAME: HT-1080, modulator LNAME; for AUC HT.Lmim: HT-1080, modulator Lmim; for AUC HT.NAD+: HT-1080, modulator NAD+; for AUC HT.NMMA: HT-1080, modulator NMMA; for AUC HT.Nec-1: HT-1080, modulator Nec-1; for AUC HT.Pepstatin: HT-1080, modulator Pepstatin; for AUC HT.SP600125: HT-1080, modulator SP600125; for AUC HT.TLCK: HT-1080, modulator TLCK; for AUC HT.U0126: HT-1080, modulator U0126; for HT.atoc (AUC) / HT.bCarotene (AUC) / HT.deferox (AUC) / HT.digoxin (AUC) / HT.trolox (AUC) / HT.zVAD (AUC): HT-1080; for HT.atoc (AUC): modulator atoc; for HT.bCarotene (AUC): modulator bCarotene; for HT.deferox (AUC): modulator deferox; for HT.digoxin (AUC): modulator digoxin; for HT.trolox (AUC): modulator trolox; for HT.zVAD (AUC): modulator zVAD; for AUC, modulator HT.3MA / AUC, modulator HT.ALLN: HT-1080 cells, modulatory profile value (AUC); for AUC, modulator HT.3MA: lethal compound cotreated with modulator 3MA; for AUC, modulator HT.ALLN: lethal compound cotreated with modulator ALLN

Row | SMILES | AUC HT.ATA | AUC HT.ActD | AUC HT.BHA | AUC HT.BHT | AUC HT.BocD | AUC HT.CHX | AUC HT.Co2+ | AUC HT.CspA | AUC HT.DPQ | AUC HT.EGTA | AUC HT.Gd3+ | AUC HT.LNAME | AUC HT.Lmim | AUC HT.NAD+ | AUC HT.NMMA | AUC HT.Nec-1 | AUC HT.Pepstatin | AUC HT.SP600125 | AUC HT.TLCK | AUC HT.U0126 | also measured
1 | CC(C)[C@@H]1NC(=O)[C@H](C)OC(=O)[C@@H](C(C)C)NC(=O)[C@@H](C(C)C)OC(=O)[C@H](C(C)C)NC(=O)[C@H](C)OC(=O)[C@@H](C(C)C)NC(=O)[C@@H](C(C)C)OC(=O)[C@H](C(C)C)NC(=O)[C@H](C)OC(=O)[C@@H](C(C)C)NC(=O)[C@@H](C(C)C)OC1=O [Vatinomycin] | 0.04039 | 0.0779 | −0.01263 | −0.05233 | 0.01496 | 0.1024 | −0.06183 | −0.03789 | 0.1702 | −0.04483 | −0.004524 | −0.03843 | 0.1163 | 0.07833 | −0.002681 | 0.08394 | 0.0197 | −0.161 | 0.02961 | 0.005482 | HT.atoc (AUC): 0.2292; HT.bCarotene (AUC): −0.01526; HT.deferox (AUC): 0.004145; HT.digoxin (AUC): −0.1615; HT.trolox (AUC): 0.04463; HT.zVAD (AUC): −0.05753; AUC, modulator HT.3MA: −0.1653; AUC, modulator HT.ALLN: 0.04228
2 | CC[C@]1(O)C[C@@H]2CN(CCc3c([nH]c4ccccc34)[C@@](C(=O)OC)(c3cc4c(cc3OC)N(C)[C@H]3[C@@](O)(C(=O)OC)[C@H](OC(C)=O)[C@]5(CC)C=CCN6CC[C@]43[C@@H]65)C2)C1 [Vinbiastine] | 0.09963 | 0.05584 | −0.01651 | 0.01379 | 0.1256 | 0.06309 | 0.2269 | −0.1335 | 0.003688 | 0.01055 | −0.002557 | −0.01231 | 0.126 | 0.1682 | −0.003516 | −0.005874 | −0.0004474 | 0.002862 | 0.002362 | 0.1372 | HT.atoc (AUC): 0.1573; HT.bCarotene (AUC): 0.001945; HT.deferox (AUC): 0.2847; HT.digoxin (AUC): 0.1245; HT.trolox (AUC): −0.001959; HT.zVAD (AUC): 0.08924; AUC, modulator HT.3MA: 0.05249; AUC, modulator HT.ALLN: 0.1527
3 | CC[C@]1(O)C[C@H]2CN(CCc3c([nH]c4ccccc34)[C@@](C(=O)OC)(c3cc4c(cc3OC)N(C=O)[C@H]3[C@@](O)(C(=O)OC)[C@H](OC(C)=O)[C@]5(CC)C=CCN6CC[C@]43[C@@H]65)C2)C1 [Vincristine] | 0.1304 | 0.05976 | −0.004754 | −0.01568 | 0.1401 | 0.08269 | 0.217 | −0.1876 | 0.01267 | 0.009231 | −0.0009641 | 0.001779 | 0.1155 | 0.1699 | 0.004831 | 0.02188 | 0.000262 | 0.0008998 | −0.006394 | 0.1926 | HT.atoc (AUC): 0.01853; HT.bCarotene (AUC): 0.01182; HT.deferox (AUC): 0.3217; HT.digoxin (AUC): 0.142; HT.trolox (AUC): −0.01599; HT.zVAD (AUC): 0.1172; AUC, modulator HT.3MA: 0.0299; AUC, modulator HT.ALLN: 0.1869
4 | C[C@@H]1C[C@@H]([C@H](O)CC2CC(=O)NC(=O)C2)C(=O)[C@@H](C)C1 [cycloheximide, Cycloheximide, reference compound] | −0.01057 | 0.06057 | 0.06705 | −0.03297 | 0.0413 | 0.1462 | 0.09948 | 0.04639 | 0.01425 | 0.01386 | 0.002991 | 0.02188 | 0.1089 | 0.07007 | 0.01986 | 0.03736 | 0.006163 | −0.003327 | 0.01836 | 0.03848 | HT.atoc (AUC): 0.01667; HT.bCarotene (AUC): 0.008758; HT.deferox (AUC): 0.2041; HT.digoxin (AUC): 0.0457; HT.trolox (AUC): 0.02127; HT.zVAD (AUC): 0.0358; AUC, modulator HT.3MA: 0.005512; AUC, modulator HT.ALLN: 0.3818
5 | CCOc1ccccc1-n1c(C(C)N2CCN(C(=O)COc3ccc(Cl)cc3)CC2)nc2ccccc2c1=O (centres unmarked) [erastin, reference compound] | −0.1315 | −0.1111 | 0.1748 | 0.1243 | −0.003341 | 0.05504 | −0.2142 | 0.02449 | 0.05672 | 0.01444 | −0.01326 | −0.008731 | 0.2178 | −0.02996 | 0.006826 | −0.02551 | −0.02573 | −0.03688 | 0.1167 | 0.1525 | HT.atoc (AUC): 0.2643; HT.bCarotene (AUC): −0.0215; HT.deferox (AUC): 0.3025; HT.digoxin (AUC): −0.03393; HT.trolox (AUC): 0.2077; HT.zVAD (AUC): −0.07207; AUC, modulator HT.3MA: −0.04578; AUC, modulator HT.ALLN: −0.06856
